The structures appear in SMILES notation.

One assay concerns the target Kar2p (Saccharomyces cerevisiae, UniProt P16474). Put plainly: proteinase K protection, SDS-PAGE. It is filed as binding. The settings on record: 2 mM ADP; 5 mM MgCl2; pH 7.4; room temperature.
The target of another assay is T1, Lhs1p (Saccharomyces cerevisiae, UniProt P36016).
T1 sequence (P36016 21-881): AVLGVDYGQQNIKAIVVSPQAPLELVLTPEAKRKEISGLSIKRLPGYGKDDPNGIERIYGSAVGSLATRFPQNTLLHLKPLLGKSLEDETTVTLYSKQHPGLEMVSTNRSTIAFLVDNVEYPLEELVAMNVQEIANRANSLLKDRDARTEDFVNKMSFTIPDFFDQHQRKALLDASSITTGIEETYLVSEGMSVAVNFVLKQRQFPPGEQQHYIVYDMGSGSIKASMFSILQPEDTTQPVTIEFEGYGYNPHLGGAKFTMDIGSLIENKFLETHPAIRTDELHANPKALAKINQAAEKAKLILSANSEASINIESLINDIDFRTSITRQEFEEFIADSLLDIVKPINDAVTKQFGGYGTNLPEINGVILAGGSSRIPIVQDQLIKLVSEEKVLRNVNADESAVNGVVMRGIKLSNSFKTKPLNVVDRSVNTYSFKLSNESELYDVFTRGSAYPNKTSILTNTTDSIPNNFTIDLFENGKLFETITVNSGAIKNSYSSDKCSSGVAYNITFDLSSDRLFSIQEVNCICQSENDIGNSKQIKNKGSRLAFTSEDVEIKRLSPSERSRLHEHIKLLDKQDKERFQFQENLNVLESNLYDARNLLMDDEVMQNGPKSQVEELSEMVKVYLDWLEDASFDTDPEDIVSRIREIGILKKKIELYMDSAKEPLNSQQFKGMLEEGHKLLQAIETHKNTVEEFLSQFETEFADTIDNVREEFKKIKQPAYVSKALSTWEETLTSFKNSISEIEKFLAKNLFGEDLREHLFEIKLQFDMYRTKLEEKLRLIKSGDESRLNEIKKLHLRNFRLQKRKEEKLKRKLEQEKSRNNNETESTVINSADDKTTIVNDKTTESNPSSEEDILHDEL
Put plainly: biochemical.

Chain of Kar2p (P16474 43-682): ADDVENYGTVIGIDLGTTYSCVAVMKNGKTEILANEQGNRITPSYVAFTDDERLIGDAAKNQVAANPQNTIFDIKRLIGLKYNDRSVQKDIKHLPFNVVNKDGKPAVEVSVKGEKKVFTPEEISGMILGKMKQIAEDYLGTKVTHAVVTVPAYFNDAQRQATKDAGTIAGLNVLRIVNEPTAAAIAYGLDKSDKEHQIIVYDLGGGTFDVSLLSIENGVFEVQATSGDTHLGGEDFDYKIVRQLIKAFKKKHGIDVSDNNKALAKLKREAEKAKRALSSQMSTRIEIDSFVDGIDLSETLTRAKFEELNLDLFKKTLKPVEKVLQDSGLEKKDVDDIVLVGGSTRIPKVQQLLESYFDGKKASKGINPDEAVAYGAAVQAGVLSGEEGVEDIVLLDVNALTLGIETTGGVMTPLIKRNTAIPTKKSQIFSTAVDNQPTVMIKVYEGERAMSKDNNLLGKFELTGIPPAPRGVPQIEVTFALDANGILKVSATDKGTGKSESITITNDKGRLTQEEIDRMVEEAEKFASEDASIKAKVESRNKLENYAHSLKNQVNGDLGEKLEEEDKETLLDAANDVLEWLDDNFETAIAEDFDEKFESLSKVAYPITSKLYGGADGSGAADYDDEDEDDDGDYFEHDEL

Turning to `Nc1ncnc2c1ncn2[C@@H]1O[C@H](COP(=O)(O)OP(=O)(O)O)[C@@H](O)[C@H]1O` [ADP], on Kar2p, the “proteinase K protection, SDS-PAGE” value is “ADP binding protects a ∼44-kDa NBD fragment”. The term Kd denotes the concentration at which binding is half-saturated. A high value points to lower affinity. With `Nc1ncnc2c1ncn2[C@@H]1O[C@H](COP(=O)(O)OP(=O)(O)OP(=O)(O)O)[C@@H](O)[C@H]1O` [ATP], binding on Lhs1p was put at a Kd of 13.6 ± 0.5 µM.

Source of the values: publication PMC2797226 (The Journal of Biological Chemistry, 2009).
